For experiment [1], the system named is T1, BRD4(1)^WT transiently expressed in HEK293T cells.
T1 construct: the first bromodomain of BRD4 [BRD4(1)]; StrepII; expressed in transfected cells; host or cells: HEK293T
Description: In-cell labeling by clickable probes, in-gel fluorescence. Type of experiment: cell-based, human. The settings on record: 10 μM probe, 1 h. How it is done:
To evaluate proteome-wide selectivity of the clickable probes, HEK293T cells transiently expressing BRD4(1)^L94C or BRD4(1)^WT were incubated with 10 μM of probes 28–30 and 42 for 1 h before the cells were lysed and the CuAAC reaction with TAMRA-PEG3-azide was conducted (Figure 7A). […]
(§1) reaction mix was taken and 8 µL of Lamelli buffer added, and the samples denatured by heating at 95 °C for 10 min. Samples were separated by gel electrophoresis on NuPAGE™ 4–12%, Bis-Tris precast polyacrylamide gels (Thermofisher). Following electrophoresis, gels were stained for 15 min with InstantBlueTM Coomasie® stain (Abcam), destained, and imaged using Bio-rad molecular imager.
(§2) Bio-rad Image Lab 6.1 was used to process the data.
(§3) In-cell target engagement
In-cell labeling by clickable probes
Transfected HEK293T cells at ~90% confluency were incubated for 1 h with a DMSO control (0.5% DMSO final concentration) or a click probe (10 µM, 0.5% DMSO final concentration) diluted in Opti- […]
Cells were then harvested and lysed using the previously described protocol above. The resulting cell lysates were diluted to 2 mg/mL using the previously described protocol above.
Cell lysates (50 µL) were then incubated with TAMRA-PEG3-Azide (200 µM), TCEP·HCl (2 mM), TBTA (200 µM), and CuSO4 (2 mM), for 1 h at rt in the dark. Samples were then prepared and separated by gel electrophoresis using the previously described protocol above.
Gels were imaged for fluorescence using Bio-rad molecular imager and then stained for 15 min with InstantBlueTM Coomasie® stain (Abcam), destained, and imaged using Bio-rad molecular imager.
Typically, the very bottom of the gel was removed prior to imaging due to residual, unreacted, TAMRA-PEG3-Azide, which would cause oversaturation and poor image quality. […]
(§4) MEM media. Cells were then harvested and lysed using the previously described protocol above. […]

The target of a further experiment is T2, BRD4(1)^L94C (Homo sapiens, UniProt O60885, L94C).
T2 construct: Characterization of His6-BRD4(1)L94C; made in house; host or cells: E. coli BL21 (DE3)
Kind of experiment: Fluorescent labeling of purified protein (CuAAC with TAMRA-PEG3-azide, in-gel fluorescence). Format: binding. The settings on record: 50 μM probe, 10 μM protein, 4 h, 37 °C, then CuAAC 1 h. How it is done:
When 28, 29, 30, and 42 were incubated with either purified BRD4(1)^L94C or BRD4(1)^WT and subjected to a copper(I)-catalyzed alkyne–azide click reaction (CuAAC) reaction with the fluorescent TAMRA-PEG3-azide dye, all clickable probes labeled the mutant protein and could be visualized using fluorescence imaging of a gel (Figure 6).
Figure 6 Clickable probes 28, 29, 30, and 42 covalently label BRD4(1)^L94C and undergo a subsequent CuAAC reaction with TAMRA-PEG3 azide to fluorescently label the protein, as shown by in-gel fluorescence imaging. Compounds 28, 29, 30, 41, and 42 (50 μM) were incubated with purified BRD4(1)^L94C or BRD4(1)^WT (10 μM) for 4 h at 37 °C, followed by CuAAC reaction with TAMRA-PEG3 azide for 1 h and separation of components by SDS-PAGE. For all compounds other than 30, only labeling of BRD4(1)^L94C was observed. […]
Fluorescent labeling of purified proteins
Assays were performed in 1.5 mL Eppendorf tubes at 37 °C, and gently shaken, unless otherwise stated.
The desired click probe (50 µM) was incubated with protein (10 µM) in protein LCMS buffer for 4 h, after which TAMRA-PEG3-Azide (200 µM), TCEP·HCl (1 mM), TBTA (100 µM), and CuSO4 (1 mM) were added and incubated for a further 1 h at room temperature in the dark. A 25 µL sample of the […]
as §1
Bio-rad Image Lab 6.1 was used to process the data. […]
InstantBlueTM Coomasie® stain (Abcam), destained, and imaged using Bio-rad molecular imager. […]
as §4

In experiment [2] the test system is T3, StrepII-tagged BRD4(1)^L94C or BRD4(1)^WT in HEK293T cells.
T3 construct: the L94C mutation in the first bromodomain of BRD4 [BRD4(1)]; StrepII; expressed in transfected cells; host or cells: HEK293T
Description: Immunoprecipitation of StrepII-tagged bromodomains after in-cell labeling. Type of experiment: cell-based, human. The settings on record: 10 µM probe, 1 h, anti-StrepII pull-down, in-gel fluorescence. The protocol:
Compound engagement with BRD4(1)^L94C was further validated by using an immunoprecipitation (IP) assay (Figure S22). Here, transfected HEK293T cells expressing StrepII-tagged BRD4(1)^L94C or StrepII-tagged BRD4(1)^WT were incubated with compound 42 before being lysed. The StrepII-tagged bromodomains were then pulled down using anti-StrepII antibodies, and the samples were separated by SDS-PAGE for analysis. […]
as §1, §2, §3
In-cell labeling by clickable probes […]
Gels were imaged for fluorescence using Bio-rad molecular imager and then stained for 15 min with InstantBlueTM Coomasie® stain (Abcam), destained, and imaged using Bio-rad molecular imager. […]
Transfected HEK293T cells at ~90% confluency were incubated for 30 min with a DMSO control or varying concentrations of OXFBD04 diluted in Opti-MEM media. […] Cells were then harvested, processed, and analysed using the previously described protocol above. […]

On to `C#CCOc1ccc(-c2c(C)noc2NC(=O)C=C)cc1` [Compound 30], for which the “In-cell labeling of BRD4(1)^WT (fluorescent band ∼49 kDa)” value in experiment [1] is listed as “not visible”. Further, on BRD4(1)^L94C, the “Labeling of purified BRD4(1)^L94C, in-gel fluorescence” value is “high levels”.
Consider `C#CCOc1cc(NC(=O)C=C)ccc1N1CCCC1=O` [Compound 42], for which the “Labeling of purified BRD4(1)^L94C, in-gel fluorescence” value at BRD4(1)^L94C is “high levels”. Also, in experiment [2], the “Engagement of StrepII-tagged BRD4(1)^L94C versus BRD4(1)^WT by immunoprecipitation” value is “selective engagement of BRD4(1)^L94C”.

Values taken from paper PMC10660337, “Mutate and Conjugate: A Method to Enable Rapid In-Cell Target Validation” (ACS Chemical Biology, 2023).
